Legend:
[1] = tested on: estrogen receptor; assay: Estrogenic activity
Excerpt: (§1) In identifying compounds that would have use in the treatment of SDAT and other diseases characterised by reductions in receptor numbers or synaptic transmission, the inventors have given consideration to the need to identify compounds that would have the desired effect but would be devoid of any estrogenic effects, as these would be unacceptable, particularly in male patients. A number of the compounds claimed to have activity in patent application DE 4303214A1 have marked estrogenic activity and are therefore unacceptable.

[2] = tested on: muscarinic receptors on cardiac muscle cells; assay: Muscarinic receptor expression on cultured neonatal cardiac muscle cells (tritiated QNB binding); assay type: cell-based, Sprague Dawley rats
Excerpt: 3. Cultured cardiac muscle cells obtained from neonatal Sprague Dawley rats. The cardiac muscle cells express muscarinic receptors, typically m2. The level of these receptors falls on prolonged culture and the effects of compounds of interest in preventing the fall in receptor numbers was investigated.
3 Effects of compounds on cultured cardiac muscle cells. Cardiac muscle cells were isolated from the ventricular muscle of neonatal Sprague Dawley rats using standard techniques. Cells were cultured in vitro and muscarinic receptor numbers expressed on cell surfaces membrane fragments after homogenization of cells harvested at various time points were estimated using specific binding of tritiated QNB. […] The experiments were therefore designed to investigate the effects of the various compounds in inhibiting this decline in receptor numbers.

[3] = target: T1, Glucocorticoid receptor (Homo sapiens, UniProt P04150); assay: Activity at glucocorticoid receptor
T1 sequence (P04150 1-777): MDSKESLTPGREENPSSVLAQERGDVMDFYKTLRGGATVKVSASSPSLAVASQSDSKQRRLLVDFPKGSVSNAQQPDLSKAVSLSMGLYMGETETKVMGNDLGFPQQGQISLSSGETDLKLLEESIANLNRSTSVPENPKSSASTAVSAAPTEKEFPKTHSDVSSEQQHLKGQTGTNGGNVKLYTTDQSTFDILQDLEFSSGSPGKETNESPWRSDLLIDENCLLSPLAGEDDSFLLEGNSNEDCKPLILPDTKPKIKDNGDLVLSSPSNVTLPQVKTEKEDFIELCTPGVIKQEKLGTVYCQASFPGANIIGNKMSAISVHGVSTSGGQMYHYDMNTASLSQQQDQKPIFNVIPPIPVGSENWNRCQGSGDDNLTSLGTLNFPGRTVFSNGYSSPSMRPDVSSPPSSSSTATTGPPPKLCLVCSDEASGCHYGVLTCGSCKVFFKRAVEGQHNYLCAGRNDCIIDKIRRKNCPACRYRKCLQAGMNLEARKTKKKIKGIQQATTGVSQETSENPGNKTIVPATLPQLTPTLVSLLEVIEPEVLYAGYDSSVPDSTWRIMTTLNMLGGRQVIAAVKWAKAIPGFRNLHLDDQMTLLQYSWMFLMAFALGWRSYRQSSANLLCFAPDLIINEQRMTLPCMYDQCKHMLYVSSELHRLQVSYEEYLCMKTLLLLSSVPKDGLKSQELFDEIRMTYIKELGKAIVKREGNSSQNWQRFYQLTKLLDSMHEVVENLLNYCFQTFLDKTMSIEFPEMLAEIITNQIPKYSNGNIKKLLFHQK
Excerpt: as §1

[4] = target: T2, Testosterone receptor (Homo sapiens, UniProt P10275); assay: Activity at testosterone receptor
T2 sequence (P10275 1-920): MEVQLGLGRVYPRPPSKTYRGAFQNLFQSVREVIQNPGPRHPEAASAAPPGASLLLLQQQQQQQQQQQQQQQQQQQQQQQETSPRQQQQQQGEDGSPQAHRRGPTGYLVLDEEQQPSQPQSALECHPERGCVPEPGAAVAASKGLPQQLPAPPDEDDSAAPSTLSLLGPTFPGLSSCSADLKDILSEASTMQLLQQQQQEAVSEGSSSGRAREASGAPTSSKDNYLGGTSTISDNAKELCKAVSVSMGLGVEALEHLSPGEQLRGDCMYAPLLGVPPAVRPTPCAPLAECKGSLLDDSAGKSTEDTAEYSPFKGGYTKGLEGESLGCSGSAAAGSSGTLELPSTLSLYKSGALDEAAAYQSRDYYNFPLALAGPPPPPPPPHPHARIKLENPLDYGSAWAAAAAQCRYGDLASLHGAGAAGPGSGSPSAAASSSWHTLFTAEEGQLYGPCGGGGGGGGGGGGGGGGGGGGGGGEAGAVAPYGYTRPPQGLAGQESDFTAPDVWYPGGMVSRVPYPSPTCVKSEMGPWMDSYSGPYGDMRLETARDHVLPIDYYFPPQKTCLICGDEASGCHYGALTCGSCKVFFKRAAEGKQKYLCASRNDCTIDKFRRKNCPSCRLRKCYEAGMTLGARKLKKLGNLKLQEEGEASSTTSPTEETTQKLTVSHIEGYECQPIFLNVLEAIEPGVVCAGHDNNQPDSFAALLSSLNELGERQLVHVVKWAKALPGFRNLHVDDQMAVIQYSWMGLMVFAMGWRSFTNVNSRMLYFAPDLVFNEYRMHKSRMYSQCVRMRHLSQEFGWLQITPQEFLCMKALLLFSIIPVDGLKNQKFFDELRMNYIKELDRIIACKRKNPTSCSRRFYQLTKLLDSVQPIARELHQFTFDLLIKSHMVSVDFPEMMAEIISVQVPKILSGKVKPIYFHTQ
Excerpt: as §1

[5] = target: T3, Progesterone receptor (Homo sapiens, UniProt P06401); assay: Activity at progesterone receptor
T3 sequence (P06401 1-933): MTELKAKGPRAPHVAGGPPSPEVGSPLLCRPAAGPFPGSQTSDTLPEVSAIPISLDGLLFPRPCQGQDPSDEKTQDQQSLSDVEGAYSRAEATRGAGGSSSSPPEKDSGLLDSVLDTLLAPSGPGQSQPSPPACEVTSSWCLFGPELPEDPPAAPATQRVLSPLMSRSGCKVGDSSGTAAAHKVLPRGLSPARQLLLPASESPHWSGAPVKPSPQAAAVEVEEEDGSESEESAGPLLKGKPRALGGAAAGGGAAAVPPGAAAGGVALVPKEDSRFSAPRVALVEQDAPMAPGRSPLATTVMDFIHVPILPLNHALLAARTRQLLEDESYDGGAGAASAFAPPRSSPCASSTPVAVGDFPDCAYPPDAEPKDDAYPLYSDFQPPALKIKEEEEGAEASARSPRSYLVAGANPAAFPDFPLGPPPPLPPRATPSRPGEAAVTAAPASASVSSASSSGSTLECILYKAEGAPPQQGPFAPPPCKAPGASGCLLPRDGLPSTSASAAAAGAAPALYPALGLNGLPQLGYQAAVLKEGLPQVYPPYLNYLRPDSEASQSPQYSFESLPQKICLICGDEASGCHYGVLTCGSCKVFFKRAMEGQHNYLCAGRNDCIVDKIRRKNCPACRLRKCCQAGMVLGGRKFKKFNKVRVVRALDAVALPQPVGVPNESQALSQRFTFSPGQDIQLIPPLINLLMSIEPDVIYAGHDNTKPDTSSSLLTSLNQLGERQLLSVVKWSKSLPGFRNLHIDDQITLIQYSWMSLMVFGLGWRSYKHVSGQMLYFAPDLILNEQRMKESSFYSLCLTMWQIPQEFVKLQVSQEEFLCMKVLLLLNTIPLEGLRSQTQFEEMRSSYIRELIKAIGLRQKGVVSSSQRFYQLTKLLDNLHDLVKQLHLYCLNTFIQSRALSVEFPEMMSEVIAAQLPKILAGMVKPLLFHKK
Excerpt: as §1

[6] = tested on: m2 receptors on CHO cells; assay: Expression of m2 receptors on transfected CHO cells (tritiated QNB binding); assay type: cell-based, Chinese hamster; details: for Antagonism by tamoxifen of the increase in muscarinic receptor number: in the presence of tamoxifen; for Effect on receptor expression, given as % increase compared to control (negative values in brackets): DMSO control
Chain of m2 receptors on CHO cells (P08172 whole entry, the tested form may be a part): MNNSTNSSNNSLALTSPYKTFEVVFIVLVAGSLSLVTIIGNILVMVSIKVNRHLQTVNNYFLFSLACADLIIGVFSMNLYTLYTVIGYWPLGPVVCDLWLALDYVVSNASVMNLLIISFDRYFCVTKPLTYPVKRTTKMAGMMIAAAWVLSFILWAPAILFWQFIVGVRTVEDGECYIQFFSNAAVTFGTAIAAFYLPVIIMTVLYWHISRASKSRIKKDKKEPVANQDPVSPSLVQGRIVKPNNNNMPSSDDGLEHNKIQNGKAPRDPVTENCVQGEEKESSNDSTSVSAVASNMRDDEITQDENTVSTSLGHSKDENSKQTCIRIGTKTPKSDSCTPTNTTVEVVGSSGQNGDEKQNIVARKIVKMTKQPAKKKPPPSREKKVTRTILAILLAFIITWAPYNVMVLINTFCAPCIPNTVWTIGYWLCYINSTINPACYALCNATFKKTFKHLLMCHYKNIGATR
Procedure: 1. Chinese hamster ovary (CHO) cells transfected with the a DNA fragment coding for a muscarinic receptor. The cell line used for the majority of the experiments was a cell line expressing the m2 receptor.
1 CHO cell line experiments The effects of various compounds on the expression of m2 receptors on CHO cells transfected with DNA for the m2 receptor were investigated. Receptor. numbers were assayed using tritiated QNB binding and subtracting non-specific binding. Compounds were dissolved in DMSO and DMSO was used as a control. Compounds were tested at a range of final concentrations. Compounds were also tested in the presence and absence of tamoxifen to try to distinguish an estrogen receptor mediated mechanism. The results are summarized in the Table 2 below, where the compounds used in the invention appear in bold, and data on other sapogenins is given for comparative purposes: […]

[7] = molar concentration of compound 10^−5

Row | Compound | Estrogenic activity [1] | Concentration of compound causing a significant increase in number of receptors expressed on neonatal cardiac muscle after 10 days in vitro culture [2] | Activity at glucocorticoid receptor [3] | Activity at testosterone receptor [4] | Activity at progesterone receptor [5] | Antagonism by tamoxifen of the increase in muscarinic receptor number [6] | Effect on receptor expression, given as % increase compared to control (negative values in brackets) [6, 7] [%] | Effect on receptor expression, given as % increase compared to control (negative values in brackets) ([6]; molar concentration of compound 10^−6) [%]
1 | C[C@@H]1CC[C@@]2(OC1)O[C@H]1C[C@H]3[C@@H]4C[C@@H](O)[C@@]5(O)C[C@@H](O)CC[C@]5(C)[C@H]4CC[C@]3(C)[C@H]1[C@@H]2C [Anzurogenin D, Anzurogenin-D] | do not display estrogenic activity | 10^−6 M | neither compound was found to have any activity | neither compound was found to have any activity | neither compound was found to have any activity | not antagonized by tamoxifen | 22 | –
2 | C[C@H]1CC[C@@]2(OC1)O[C@H]1C[C@H]3[C@@H]4CC[C@@H]5C[C@@H](O)CC[C@]5(C)[C@H]4CC[C@]3(C)[C@H]1[C@@H]2C [Sarsasapogenin, reference compound] | – | 10^−5 M | – | – | – | – | 34 | –
3 | Astragaloside [reference compound] | – | 10^−5 M | – | – | – | – | – | –
4 | Smilagenin | do not display estrogenic activity | 10^−6 M | neither compound was found to have any activity | neither compound was found to have any activity | neither compound was found to have any activity | not antagonized by tamoxifen | 57 | 18
